Test results reported in patent US20100168038A1, “USE OF COMPOUNDS IN COMBINATION WITH GAMMA-IRRADIATION FOR THE TREATMENT OF CANCER” (priority 2006, published 2010).
Values joined by “and” are separate entries in the source; they are usually repeats but may differ in a detail not shown here. Equal values may be shown once. Residues, ends and D or L forms follow the SMILES beside them.

Key:
[1] = Stability in serum; format: in vitro ADME
[2] = test system: DBA/2-c-Myc/Bcl-xL cells; assay: Tumor growth of DBA/2-c-Myc/Bcl-xL cells in DBA/2 mice; format: in vivo, mouse
Description: (§1) Tumor Growth Experiments. Tumor cells were washed in PBS and resuspended in a volume of 200 micro-l per inoculate. The cells were then inoculated into the right flank at 10^6 per mouse and growth of the tumor was monitored by measurement two times per week. The initiation of anti-tumor treatment of the mice was to some extent individualized according to when tumor growth started in each mouse. The mice were irradiated with 4 Gy prior to tumor inoculation in order to inhibit anti-tumor immune responses. The tumor volume was calculated as the mean volume in mice with tumors growth, according to (a1×a2×a3)/2 (the numbers ai denote tumor diameter, width and depth). The time of first palpation varied between different mice, although the general pattern of growth was similar in virtually all of the mice. In most diagrams a log-scale is used to better visualize the therapeutic effects against small tumors, i.e. the presence of complete rejections. For inhibition of TPPII in vivo we made intraperitoneal injections with 13.8 mg per kg of body weight (14 micro-l of a 50 mM solution/mouse) of the Subtilisin inhibitor Z-Gly-Leu-Ala-OH (Z-GLA-OH, Bachem, Weil am Rhein, Germany) twice per week, diluted into 200 micro-l PBS. All gamma-irradiations were full body exposures.
Retroviral transduction and transplantation. […]
Detection of GFP and YFP expression was performed using a Cyan™ ADP cytometer (Dako, Glostrup, Denmark) where after excitation at 488 nm, a 525-nm long-pass dichroic mirror was used to initially separate the signals followed by a 510/21-nm bandpass filter for detection of EGFP and a 550/30-nm band pass filter for EYFP. Data were analyzed using FlowJo software (Tree Star, Inc., San Carlos, Calif.). […]

[3] = test system: Lewis Lung Carcinoma (LLC) cells; assay: Tumor growth of Lewis Lung Carcinoma (LLC) in mice, compound with or without gamma-irradiation; format: in vivo, mouse; details: for tumor volume / tumor volume, mean: LLC; for tumor volume: single mouse; for tumor volume, mean: group mean
Description: as §1
Table 2 contains in vivo data, showing tumor volume in mm^3, in groups of 4 mice with LLC (Lewis Lung Carcinoma). Mice were sacrificed if the tumor volume exceeded 1000 mm^3. Some mice were administered with the compounds alone; others were additionally administered with irradiation. Mice were given the compounds, and in some cases also gamma irradition (400 Rad), at days 7, 10, 14, 18 and 21.

[4] = compound + gamma irradiation (400 Rad), day 10
[5] = compound + gamma irradiation (400 Rad), day 14
[6] = compound + gamma irradiation (400 Rad), day 18
[7] = compound + gamma irradiation (400 Rad), day 21

For `CC(C)C[C@H](NC(=O)CNC(=O)OCc1ccccc1)C(=O)N[C@@H](C)C(=O)O` [Z-GLA-OH, Z-Gly-Leu-Ala-OH] (HELM PEPTIDE1{[O=C(OCc1ccccc1)[*:2]].G.L.A}$$$$V2.0), the stability in serum [1] was “relatively stable in serum”, the “tumor cells in lung, spleen or liver” value ([2]; Z-GLA-OH 13.8 mg/kg + gamma-irradiation, flow cytometry, histology) was “failed to find tumor cells” and the tumor response ([2]; Z-GLA-OH only, no gamma-irradiation) was “no reduction of tumor size”. For the same compound, the tumor response ([2]; established DBA/2-c-Myc/Bcl-xL tumors, Z-GLA-OH 13.8 mg/kg + 4 Gy doses of gamma-irradiation) was “complete tumor regression”, the tumor volume ([3]; compound + gamma irradiation (400 Rad) at days 7, 10, 14, 18, 21, day 7) was 4.0 mm^3 and 6.0 mm^3 (2×) and 0.0 mm^3 and the “tumor volume, mean” value ([3]; compound + gamma irradiation (400 Rad), day 7) was 4.00 mm^3. For the same compound, the “tumor volume, mean” value [3, 4] was 64.00 mm^3, the tumor volume [3, 4] was 48.0 mm^3 and 128.0 mm^3 and 40.0 mm^3 (2×) and the “tumor volume, mean” value [3, 5] was 84.00 mm^3. The tumor volume [3, 5] was 72.0 mm^3 (2×) and 144.0 mm^3 and 48.0 mm^3, the “tumor volume, mean” value [3, 6] was 25.38 mm^3 and the tumor volume [3, 6] was 32 mm^3 (2×) and 24 mm^3 and 13.5 mm^3. The “tumor volume, mean” value [3, 7] was 7.00 mm^3, the tumor volume [3, 7] was 13.5 mm^3 (2×) and 0.5 mm^3 (2×) and the “tumor volume, mean” value ([3]; compound alone, day 7) was 5.88 mm^3. For the same compound, the tumor volume ([3]; compound alone, day 7 after tumor inoculation) was 4.0 mm^3 and 0.0 mm^3 and 6.0 mm^3 and 13.5 mm^3, the “tumor volume, mean” value ([3]; compound alone, day 10) was 150.25 mm^3 and the tumor volume ([3]; compound alone, day 10) was 256.0 mm^3 and 192.0 mm^3 and 9.0 mm^3 and 144.0 mm^3. For the same compound, the “tumor volume, mean” value ([3]; compound alone, day 14) was 748 mm^3, the tumor volume ([3]; compound alone, day 14) was 660.0 mm^3 and 864.0 mm^3 and 720.0 mm^3 and the “tumor volume, mean” value ([3]; compound alone, day 18) was 1300.67 mm^3. The tumor volume ([3]; compound alone, day 18) was 864 mm^3 and 1470 mm^3 and 1568 mm^3, the tumor volume ([3]; compound alone, day 21) was 2048.0 mm^3 and the “effect on LLC tumors” value ([3]; Z-GLA-OH only, in the absence of gamma-irradiation) was “no effect”. The tumor response ([3]; established LLC tumors, gamma-irradiation 4 Gy doses + Z-GLA-OH injection) was “complete regression”.
